For experiment [1], the target named is T1, Thymidine phosphorylase (Escherichia coli K-12, UniProt P07650). In words: Inhibition of Escherichia coli K12 thymidine phosphorylase expressed in Escherichia coli preincubated for 10 mins followed by substrate addition measured up to 30 mins by spectrophotometric method.
Experiment [2] addresses Thymidine phosphorylase (Escherichia coli K-12) (UniProt P07650). In words: Potency index, ratio of 7-DX IC50 to compound IC50 for Escherichia coli K12 thymidine phosphorylase expressed in Escherichia coli.
Experiment [3] is described as follows: Inhibition of Escherichia coli thymidine phosphorylase expressed in Escherichia coli preincubated for 10 mins followed by thymidine substrate addition measured for 10 mins by spectrophotometric method.
A short description of experiment [4]: Non-competitive inhibition of Escherichia coli thymidine phosphorylase expressed in Escherichia coli preincubated for 10 mins followed by varying levels of thymidine substrate addition by Lineweaver-Burk plot analysis.
The target of experiment [5] is T1, Thymidine phosphorylase. In words: Inhibition of Escherichia coli K12 thymidine phosphorylase expressed in Escherichia coli using thymidine as substrate addition measured up to 20 mins by Uv-vis spectrophotometric method.
The target of experiment [6] is T2, Thymidine phosphorylase (Homo sapiens, UniProt P19971).
T2 sequence (P19971 whole entry): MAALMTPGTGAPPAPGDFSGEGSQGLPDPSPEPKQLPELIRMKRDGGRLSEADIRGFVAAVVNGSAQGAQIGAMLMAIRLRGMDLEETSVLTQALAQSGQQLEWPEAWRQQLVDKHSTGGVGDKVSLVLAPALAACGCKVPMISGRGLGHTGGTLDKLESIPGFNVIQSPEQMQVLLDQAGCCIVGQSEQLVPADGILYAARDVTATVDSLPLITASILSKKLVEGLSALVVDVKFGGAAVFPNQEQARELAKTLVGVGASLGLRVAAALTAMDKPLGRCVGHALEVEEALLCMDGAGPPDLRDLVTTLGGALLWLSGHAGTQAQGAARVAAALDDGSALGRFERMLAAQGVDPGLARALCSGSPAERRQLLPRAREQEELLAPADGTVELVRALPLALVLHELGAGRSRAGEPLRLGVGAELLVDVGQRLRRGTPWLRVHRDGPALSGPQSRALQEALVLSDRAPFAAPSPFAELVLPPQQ
In words: Inhibition of human thymidine phosphorylase using thymidine as substrate preincubated for 30 mins followed substrate addition measured up to 30 mins.

SMILES strings stand for the structures.

T1 sequence (P07650 whole entry): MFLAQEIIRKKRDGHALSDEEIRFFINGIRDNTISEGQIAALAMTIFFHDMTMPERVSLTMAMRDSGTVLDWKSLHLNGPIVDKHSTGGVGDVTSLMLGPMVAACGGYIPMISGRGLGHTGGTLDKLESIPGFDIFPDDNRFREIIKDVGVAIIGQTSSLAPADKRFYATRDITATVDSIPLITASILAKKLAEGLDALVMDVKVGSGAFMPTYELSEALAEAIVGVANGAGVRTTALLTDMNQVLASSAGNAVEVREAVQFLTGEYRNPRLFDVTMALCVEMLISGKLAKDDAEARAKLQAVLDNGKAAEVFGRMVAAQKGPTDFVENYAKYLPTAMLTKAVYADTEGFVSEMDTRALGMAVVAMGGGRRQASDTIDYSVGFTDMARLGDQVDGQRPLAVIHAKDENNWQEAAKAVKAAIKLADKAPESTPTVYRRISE
Sequence of Thymidine phosphorylase (Escherichia coli K-12) (P07650 whole entry, looked up): as the sequence (P07650 whole entry) above

Regarding `Oc1cc(O)c(/C=N/Nc2cnc3ccccc3n2)cc1O`, in experiment [1], the IC50 stood at 3.2 µM. The Ratio IC50 in experiment [2] worked out at 12.

As to `O=c1[nH]c(-c2ccc(O)c(O)c2)nc2ccccc12`, half-maximal inhibition in experiment [3] (IC50) required 42.9 µM. Also, affinity in experiment [4] was put at a Ki of 52.3 µM.

Consider `O=c1[nH]c(SCc2ccccc2)nc2nc(-c3ccccc3)nn12`, for which half-maximal inhibition in experiment [5] (IC50) required 111 µM.

Take `Oc1ccc(-c2nnc(S)o2)cc1`: the IC50 in experiment [1] came out at 38.2 µM.

With `O=C(OCc1cc(O)ccc1O[C@@H]1O[C@H](CO)[C@@H](O)[C@@H](OC(=O)c2ccc(O)cc2)[C@H]1O)c1ccccc1`, in experiment [6], the IC50 was 226 µM.

The values above are taken from ChEMBL document CHEMBL3875181, “Recent discovery of non-nucleobase thymidine phosphorylase inhibitors targeting cancer” (Eur J Med Chem, 2016).
